Source: patent US5726186A, “Pentacyclic compounds, intermediates, processes, compositions, and methods” (Eli Lilly and Company, priority 1996, dated 1998)

Key:
uterus = assay: Wet uterine weight in ovariectomized rats (post-menopausal model); type: in vivo, female Sprague Dawley rats (ovariectomized); conditions: Rattus norvegicus, 96 h, oral, daily for 4 days, OVX rats, read-out: Uterine Weight (% increase vs. OVX)
Experimental: In the examples illustrating the methods, a post-menopausal model was used in which effects of different treatments upon circulating lipids were determined.
(§1) Seventy-five day old female Sprague Dawley rats (weight range of 200 to 225 g) were obtained from Charles River Laboratories (Portage, Mich.). The animals were either bilaterally ovariectomized (OVX) or exposed to a Sham surgical procedure at Charles River Laboratories, and then shipped after one week. Upon arrival, they were housed in metal hanging cages in groups of 3 or 4 per cage and had ad libitum access to food (calcium content approximately 0.5%) and water for one week. Room temperature was maintained at 22.2°±1.7° C. with a minimum relative humidity of 40%. The photoperiod in the room was 12 hours light and 12 hours dark.
(§2) Dosing Regimen Tissue Collection. After a one week acclimation period (therefore, two weeks post-OVX) daily dosing with test compound was initiated. 17a-ethynyl estradiol or the test compound were given orally, unless otherwise stated, as a suspension in 1% carboxymethylcellulose or dissolved in 20% cyclodextrin. Animals were dosed daily for 4 days. Following the dosing regimen, animals were weighed and anesthetized with a ketamine: Xylazine (2:1, V:V) mixture and a blood sample was collected by cardiac puncture. The animals were then sacrificed by asphyxiation with CO2, the uterus was removed through a midline incision, and a wet uterine weight was determined.
(§3) The data presented in the Tables 1 below reflects the response of 5 to 6 rats per treatment.

Serum Cholesterol = assay: Serum cholesterol analysis in ovariectomized rats; type: in vivo, female Sprague Dawley rats (ovariectomized); conditions: Rattus norvegicus, 96 h, oral, daily for 4 days, OVX rats, read-out: Serum Cholesterol (% decrease vs. OVX)
Excerpt: as §1, §2
Cholesterol Analysis. Blood samples were allowed to clot at room temperature for 2 hours, and serum was obtained following centrifugation for 10 minutes at 3000 rpm. Serum cholesterol was determined using a Boehringer Mannheim Diagnostics high performance cholesterol assay. Briefly the cholesterol was oxidized to cholest-4-en-3-one and hydrogen peroxide. The hydrogen peroxide was then reacted with phenol and 4-aminophenazone in the presence of peroxidase to produce a p-quinone imine dye, which was read spectrophotemetrically at 500 nm. Cholesterol concentration was then calculated against a standard curve. The entire assay was automated using a Biomek Automated Workstation.
as §3

[1] = tested on: Uterine Eosinophil Peroxidase (EPO); assay: Uterine Eosinophil Peroxidase (EPO) Assay; type: in vivo, female Sprague Dawley rats (ovariectomized); parameters: Uterine EPO (V. max): unit not given here; conditions: oral, daily for 4 days, OVX rats, 450 nm
Excerpt: as §1, §2
Uterine Eosinophil Peroxidase (EPO) Assay. Uteri were kept at 4° C. until time of enzymatic analysis. The uteri were then homogenized in 50 volumes of 50 mM Tris buffer (pH-8.0) containing 0.005% Triton X-100. Upon addition of 0.01% hydrogen peroxide and 10 mM O-phenylenediamine (final concentrations) in Tris buffer, increase in absorbance was monitored for one minute at 450 nm. The presence of eosonophils in the uterus is an indication of estrogenic activity of a compound. The maximal velocity of a 15 second interval was determined over the initial, linear portion of the reaction curve.
As is expressed in the below data, estrogenicity also was assessed by evaluating the adverse response of eosinophil infiltration into the uterus.
as §3

[2] = tested on: MCF-7 breast adenocarcinoma cells; assay: MCF-7 Proliferation Assay (tritiated thymidine); type: cell-based; conditions: Homo sapiens, MCF7; MCF-7 cells, 48 hours, tritiated thymidine pulse 4 hours
Experimental: MCF-7 breast adenocarcinoma cells (ATCC HTB 22) were maintained in MEM (minimal essential medium, phenol red-free, Sigma, St. Louis, Mo.) supplimented with 10% fetal bovine serum […] (V/V), L-glutamine (2 mM), sodium pyruvate (1 mM), HEPES {(N-[2-hydroxyethyl]piperazine-N'-[2-ethanesulfonic acid]10 mM)}, non-essential amino acids and bovine insulin (1 ug/mL) (maintenance medium). Ten days prior to assay, MCF-7 cells were switched to maintenance medium supplemented with 10% dextran coated charcoal stripped fetal bovine serum (DCC-FBS) assay medium) in place of 10% FBS to deplete internal stores of steroids. MCF-7 cells were removed from maintenance flasks using cell dissociation medium (Ca++/Mg++ free HBSS (phenol red-free) supplemented with 10 mM HEPES and 2 mM EDTA). Cells were washed twice with assay medium and adjusted to 80,000 cells/mL. Approximately […] (8,000 cells) were added to flat-bottom microculture wells (Costar 3596) and incubated at 37° C. in a 5% CO2 humidified incubator for 48 hours to allow for cell adherence and equilibration after transfer. Serial dilutions of drugs or DMSO as a diluent control were prepared in assay medium and […] to triplicate microcultures followed by […] assay medium for a final volume of […]. After an additional 48 hours at 37° C. in a 5% CO2 humidified incubator, microcultures were pulsed with tritiated thymidine (1 uCi/well) for 4 hours. Cultures were terminated by freezing at -70° C. for 24 hours followed by thawing and harvesting of microcultures using a Skatron Semiautomatic Cell Harvester. Samples were counted by liquid scintillation using a Wallac BetaPlace b counter. Results in Table 3 below show the IC50 for certain compounds of the present invention.

Distal Femur Metaphysis = assay: Osteoporosis test, distal femur metaphysis X-ray image analysis; type: in vivo, female Sprague Dawley rats (ovariectomized); conditions: oral, daily for 35 days, in 20% hydroxypropyl b-cyclodextrin
Excerpt: Seventy-five day old female Sprague Dawley rats (weight range of 200 to 225 g) were obtained from Charles River Laboratories (Portage, Mich.). The animals were either bilaterally ovariectomized (OVX) or exposed to a Sham surgical procedure at Charles River Laboratories, and then shipped after one week. Upon arrival, they were housed in metal hanging cages in groups of 3 or 4 per cage and had ad libitum access to food (calcium content approximately 0.5%) and water for one week. Room temperature was maintained at 22.2°±1.7° C. with a minimum relative humidity of 40%. The photoperiod in the room was 12 hours light and 12 hours dark. Following the General Preparation Procedure, infra, the rats were treated daily for 35 days (6 rats per treatment group) and sacrificed by carbon dioxide asphyxiation on the 36th day. The 35 day time period was sufficient to allow maximal reduction in bone density, measured as described herein. At the time of sacrifice, the uteri were removed, dissected free of extraneous tissue, and the fluid contents were expelled before determination of wet weight in order to confirm estrogen deficiency associated with complete ovariectomy. […] The uteri were then placed in 10% neutral buffered formalin to allow for subsequent histological analysis. The right femurs were excised and digitilized x-rays generated and analyzed by an image analysis program (NIH image) at the distal metaphysis. The proximal aspect of the tibiae from these animals were also scanned by quantitative computed tomography. In accordance with the above procedures, compounds of the present invention and ethynyl estradiol (EE2) in 20% hydroxypropyl b-cyclodextrin were orally administered to test animals. Distal femur metaphysis data presented in Tables 2 and 3 below are the results of formula I compound treatments compared to intact and ovariectomized test animals. Results are reported as percent protection relative to ovariectomy.

Q: How did the change in vivo at 0.01 mg/kg (uterus; 0.01 mg/kg) turn out when `Oc1ccc2c(c1)CN(c1ccc(OCCN3CCCCC3)cc1)c1c-2ccc2cc(O)ccc12` [Example 14, 2,8-Dihydroxy-5-[4-[2-(1-piperidinyl)ethoxy]phenyl]-6H-benzo[c]phenanthridine] was run?
A: The change in vivo at 0.01 mg/kg was -0.6%.

Q: What about the change in vivo at 0.1 mg/kg (uterus) of the same compound?
A: The change in vivo at 0.1 mg/kg was 60%.

Q: And the change in vivo at 1 mg/kg (uterus)?
A: Its change in vivo at 1 mg/kg is 49.1%.

Q: What about the inhibition in vivo at 0.01 mg/kg (Serum Cholesterol; 0.01 mg/kg) of the same compound?
A: Its inhibition in vivo at 0.01 mg/kg is 24.8%.

Q: What about the inhibition in vivo at 0.1 mg/kg (Serum Cholesterol) of the same compound?
A: The inhibition in vivo at 0.1 mg/kg was 59.5%.

Q: And the inhibition in vivo at 1 mg/kg (Serum Cholesterol)?
A: The inhibition in vivo at 1 mg/kg was 60.7%.

Q: And the “Uterine EPO (V. max)” value ([1]; 0.01 mg/kg)?
A: The value was 2.7.

Q: And the “Uterine EPO (V. max)” value ([1]; 0.1 mg/kg)?
A: Its value is 5.4.

Q: What about the “Uterine EPO (V. max)” value ([1]; 1.0 mg/kg) of the same compound?
A: The value was 36.0.

Q: What about the IC50 [2] of the same compound?
A: Its IC50 is 1 nM.

Q: For `CCCCS(=O)(=O)Oc1ccc2c(c1)OC(c1ccc(OCCN3CCCCC3)cc1)c1c-2sc2cc(OS(=O)(=O)CCCC)ccc12` (stereo not drawn) [Example 5, 3,9-Bis(1-butylsulfonyloxy)-6-[4-[2-(1-piperidinyl)ethoxy]phenyl]-6-H-[1]benzothieno[3,2-c][1]benzopyran], which change in vivo at 0.1 mg/kg (uterus) is on record?
A: The change in vivo at 0.1 mg/kg was -5.1%.

Q: What about the change in vivo at 1 mg/kg (uterus) of the same compound?
A: The change in vivo at 1 mg/kg was 18.6%.

Q: What about the inhibition in vivo at 0.1 mg/kg (Serum Cholesterol) of the same compound?
A: The inhibition in vivo at 0.1 mg/kg was -9%.

Q: And the inhibition in vivo at 1 mg/kg (Serum Cholesterol)?
A: The inhibition in vivo at 1 mg/kg was 61.3%.

Q: And the “Uterine EPO (V. max)” value ([1]; 0.1 mg/kg)?
A: Its value is 4.5.

Q: What about the “Uterine EPO (V. max)” value ([1]; 1.0 mg/kg) of the same compound?
A: Its value is 4.8.

Q: And the IC50 [2]?
A: The IC50 was 1000 nM.

Q: With `O=S(=O)(Oc1ccc2c(c1)OC(c1ccc(OCCN3CCCCC3)cc1)c1c-2sc2cc(OS(=O)(=O)C(F)(F)F)ccc12)C(F)(F)F` (stereo not drawn) [Example 6, 3,9-Bis(trifluoromethanesulfonyloxy)-6-[4-[2-(1-piperidinyl)ethoxy]phenyl]-6-H-[1]benzothieno[3,2-c][1]benzopyran] as the compound, how does the change in vivo at 0.1 mg/kg (uterus) read?
A: Its change in vivo at 0.1 mg/kg is 23%.

Q: And the change in vivo at 1 mg/kg (uterus)?
A: Its change in vivo at 1 mg/kg is 6.4%.

Q: And the change in vivo at 10 mg/kg (uterus)?
A: The change in vivo at 10 mg/kg was 50%.

Q: What about the inhibition in vivo at 0.1 mg/kg (Serum Cholesterol) of the same compound?
A: Its inhibition in vivo at 0.1 mg/kg is -2.5%.

Q: What about the inhibition in vivo at 1 mg/kg (Serum Cholesterol) of the same compound?
A: The inhibition in vivo at 1 mg/kg was 9.9%.

Q: And the inhibition in vivo at 10 mg/kg (Serum Cholesterol)?
A: The inhibition in vivo at 10 mg/kg was -11.4%.

Q: And the “Uterine EPO (V. max)” value ([1]; 0.1 mg/kg)?
A: Its value is 4.2.

Q: What about the “Uterine EPO (V. max)” value ([1]; 1.0 mg/kg) of the same compound?
A: Its value is 1.8.

Q: What about the “Uterine EPO (V. max)” value ([1]; 10.0 mg/kg) of the same compound?
A: Its value is 3.6.

Q: And the IC50 [2]?
A: Its IC50 is 500 nM.

Q: How did the change in vivo at 0.1 mg/kg (uterus) turn out when `O=C(Oc1ccc2c(c1)OC(c1ccc(OCCN3CCCCC3)cc1)c1c-2sc2cc(OC(=O)c3ccccc3)ccc12)c1ccccc1` (stereo not drawn) [Example 3, 3,9-Bis(benzoyloxy)-6-[4-[2-(1-piperidinyl)ethoxy]phenyl]-6-H-[1]benzothieno[3,2-c][1]benzopyran] was run?
A: Its change in vivo at 0.1 mg/kg is 32.5%.

Q: What about the change in vivo at 1 mg/kg (uterus) of the same compound?
A: Its change in vivo at 1 mg/kg is 7.4%.

Q: And the inhibition in vivo at 0.1 mg/kg (Serum Cholesterol)?
A: Its inhibition in vivo at 0.1 mg/kg is 51.5%.

Q: What about the inhibition in vivo at 1 mg/kg (Serum Cholesterol) of the same compound?
A: Its inhibition in vivo at 1 mg/kg is 50.8%.

Q: And the “Uterine EPO (V. max)” value ([1]; 0.1 mg/kg)?
A: The value was 4.2.

Q: And the “Uterine EPO (V. max)” value ([1]; 1.0 mg/kg)?
A: Its value is 3.0.

Q: What about the IC50 [2] of the same compound?
A: Its IC50 is 3 nM.

Q: Which results are given for `Oc1ccc2c(c1)OC(c1ccc(OCCN3CCCCC3)cc1)c1c-2sc2cc(O)ccc12` (stereo not drawn) [Example 1, 3,9-Dihydroxy-6-[4-[2-(1-piperidinyl)ethoxy]phenyl]-6-H-[1]benzothieno[3,2-c][1]benzopyran]?
A: change in vivo at 0.1 mg/kg (uterus): 25.3%; change in vivo at 1 mg/kg (uterus): 9.2%; change in vivo at 10 mg/kg (uterus): 5.9%; inhibition in vivo at 0.1 mg/kg (Serum Cholesterol): 72.8%; inhibition in vivo at 1 mg/kg (Serum Cholesterol): 51%; inhibition in vivo at 10 mg/kg (Serum Cholesterol): 54.6%; Uterine EPO (V. max) ([1]; 0.1 mg/kg): 7.8; Uterine EPO (V. max) ([1]; 1.0 mg/kg): 3.0; Uterine EPO (V. max) ([1]; 10.0 mg/kg): 2.1; IC50 [2]: 0.2 nM; Distal Femur Metaphysis (X-ray Image Analysis-Gray Score), percent protection relative to ovariectomy (Distal Femur Metaphysis; 0.01 mg/kg): 14.2%; Distal Femur Metaphysis (X-ray Image Analysis-Gray Score), percent protection relative to ovariectomy (Distal Femur Metaphysis; 0.1 mg/kg): 49.8%; Distal Femur Metaphysis (X-ray Image Analysis-Gray Score), percent protection relative to ovariectomy (Distal Femur Metaphysis; 1.0 mg/kg): 51.7%; Distal Femur Metaphysis (X-ray Image Analysis-Gray Score), percent protection relative to ovariectomy (Distal Femur Metaphysis; 10.0 mg/kg): 48.2%
